Values quoted from earlier work as cited in patent publication US11910793B2, “Multifunctional agricultural adjuvant compositions” (WINFIELD SOLUTIONS, LLC, priority 2019, dated 2024).

Details: water at 0° C.

Structure (SMILES): N.N.O=S(=O)(O)O [AMS, ammonium sulfate]
- amount of AMS dissolvable in water: 41 wt. %
